What was measured:
[1] = tested on: KPC1361 (pancreas), B16-F10 (melanoma), 4T1 (breast), and MyC-CaP (prostate); assay: Flow cytometry of MHC-I surface expression in murine cancer cells; assay type: cell-based; conditions: with or without IFN-γ; in a dose-dependent manner
Source text: (§1) FIG. 1E (Left) is line graphs of flow cytometry measuring MHC-I surface expression in KPC1361 cells, stimulated with or without IFN-γ, treated with DMSO, Apilimod, or ESK981; (Right) are bar graphs of quantification of flow cytometry measuring MHC-I surface expression in KPC1361 cells, stimulated with or without IFN-γ, treated with DMSO, Apilimod, or ESK981.
as §1, with “FIG. 2A” for “FIG. 1E”, “in MyC-CaP” for “in KPC1361”, “(Right) is a” for “(Right) are”, “bar graph” for “bar graphs”
Cancer cells or the OVA-expressing cancer cells treated in vitro were harvested from dishes, resuspended in buffer MACS (PBS containing 2% FBS and 2 mM EDTA), and stained with Zombie NIR™ Fixable Viability kit (BioLegend: #423106) and fluorophore-conjugated antibody against MHC-I or PE-conjugated antibody against SIINFEKL bound H-2Kb (BioLegend; catalog #141604), respectively. The cells were next washed twice with 1 ml MACS and fixed with 2% paraformaldehyde in PBS for 15 minutes at room temperature. The cells were then subjected to the flow cytometer (SONY SH800S) for measuring surface expression of MHC-I or SIINFEKL bound H-2Kb, respectively. […]

[2] = tested on: KPC1361 cells; assay: MHC-I surface expression in Pikfyve-wildtype, Pikfyve-null, Atg5-null or Atg7-null cells; assay type: cell-based, mouse; conditions: on-target test
Source text: as §1, with “1F” for “1E”, “cells” for “cells, stimulated”, “Pikfyve KO,” for “IFN-γ,”, “DMSO, Bafilomycin, chloroquine,” for “DMSO,”, “is” for “are”
FIG. 1G (Left) is a line graph of flow cytometry measuring MHC-I surface expression in KPC1361 cells with non-targeting single-guide RNA (control), or single-guide RNAs depleting Atg5 or Atg7, treated with DMSO or Apilimod; (Right) is a bar graph of quantification of flow cytometry measuring MHC-I surface expression in KPC1361 cells with non-targeting single-guide RNA (control), or single-guide RNAs depleting Atg5 or Atg7, treated with DMSO or Apilimod.
Cancer cells or the OVA-expressing cancer cells treated in vitro were harvested from dishes, resuspended in buffer MACS (PBS containing 2% FBS and 2 mM EDTA), and stained with Zombie NIR™ Fixable Viability kit (BioLegend: #423106) and fluorophore-conjugated antibody against MHC-I or PE-conjugated antibody against SIINFEKL bound H-2Kb (BioLegend; catalog #141604), respectively. The cells were next washed twice with 1 ml MACS and fixed with 2% paraformaldehyde in PBS for 15 minutes at room temperature. The cells were then subjected to the flow cytometer (SONY SH800S) for measuring surface expression of MHC-I or SIINFEKL bound H-2Kb, respectively. Antibodies used in this study include anti-H-2Kb (BD Biosciences; catalog #553570) and anti-H-2Db (28-14-8; Thermo Fisher Scientific; catalog #12-5999-82) for KPC1361 and B16-F10, anti-H-2Kd (BD Biosciences; catalog #562004) and anti-H-2Dd (BD Biosciences; catalog #553580) for 4T1, anti-H-2Kq (BD Biosciences; catalog #742296) and anti-H-2Dq/H-2Lq (BD Biosciences; catalog #744853) for MyC-CaP, and anti-HLA-A,B,C (clone w6/32; BioLegend; catalog #311406) for human cancer cells.

SMILES	constitutive and induced surface expression of MHC-I [1]	upregulation of MHC-I surface expression, Pikfyve-wildtype vs Pikfyve-null cells [2]
CC(C)Cn1c2ccc(Nc3ncccn3)cc2c2c3c(c4c(c21)CCc1nn(C)cc1-4)C(=O)NC3 [ESK981, 13-isobutyl-4-methyl-10-(pyrimidin-2-ylamino)-1,2,4,7,8,13-hexahydro-6H-indazolo[5,4-a]pyrrolo[3,4-c]carbazol-6-one]	upregulated	only observed in the wildtype cells but not Pikfyve-null cells
Cc1cccc(/C=N/Nc2cc(N3CCOCC3)nc(OCCc3ccccn3)n2)c1 [apilimod, N-[(E)-(3-methylphenyl)methylideneamino]-6-morpholin-4-yl-2-(2-pyridin-2-ylethoxy)pyrimidin-4-amine]	upregulated	only observed in the wildtype cells but not Pikfyve-null cells

Reference: patent US20250144107A1, “USE OF A PIKFYVE INHIBITOR IN COMBINATION WITH IMMUNOTHERAPY” (The Regents of the University of Michigan, priority 2023, published 2025)
